Assay results reported in patent publication US5519028A, “Antiviral preparations” (priority 1992, dated 1996).
Read-outs that look alike come from different tables or passages of the source.

How the values were obtained:
HIV-1 TIG2 (HIV-1AIDS) = test: HIV P24 production, target PBMC pretreated, isolate TIG2; format: cell-based; settings: for Post-infection production of HIV P24: PBMC + 30 μg/ml 2 hours
Protocol: To test the efficacy of flavopereirine on the infectious capability of HIV-1, two experiments were conducted. […] After 2 hours of incubation, the cells were rinsed twice and cultivated in 1 ml of RPMI 1640 containing 20 IU of IL-2 per ml (Boehringer […], Germany), 2 μg of Polybrene (hexadimethrine bromide) per ml (Sigma, St. Louis, Mo., USA) and 10^-7 IU of goat antiserum acting against human alpha interferon (Janssen, Beerse, Belgium) per ml. Half the culture was changed after 72 hours, and thereafter every 48 hours until the 30th day. […] The surface material of the culture was tested by an immuno-enzymatic (ELISA) assay for the production of antigen P24 (Abbott, Chicago, Ill., USA) and the optical density (OD) of the resulting color was converted into P24 concentration from the slope of a standard nomogram, as described by W. Lu and J. -M. Andrieu, Journal of Virology, 66(1): 334-340 (1992).

[1] = test system: viruses of the Shope fibrome type; settings: intracutaneously 200-600 μg or 2.5-500 mg/day; cited from earlier work
influenza virus = settings: cited from earlier work

**Q.** For `CCc1ccc2c3[nH]c4ccccc4c3cc[n+]2c1` [flavopereirine], which “Post-infection production of HIV P24” value (HIV-1 TIG2 (HIV-1AIDS); d3) is on record?
**A.** 515 ± 103 pg/mL

**Q.** And the “Post-infection production of HIV P24” value (HIV-1 TIG2 (HIV-1AIDS); d5)?
**A.** > 1500 pg/mL

**Q.** What about the “inhibition of productive viral infections” value (HIV-1 TIG2 (HIV-1AIDS); target PBMC pretreated with 60 μg/ml only) of the same compound?
**A.** complete inhibition of productive viral infections

**Q.** And the “Production of P24 in HIV” value (HIV-1; 50% AB serum, 10 μg/ml 2 hrs, d4)?
**A.** 384 ± 83 pg/mL

**Q.** And the “Production of P24 in HIV” value (HIV-1; 50% AB serum, 10 μg/ml 2 hrs, d10)?
**A.** > 1500 pg/mL

**Q.** What about the “Production of P24 in HIV” value (HIV-1; 50% AB serum, 30 μg/ml 2 hrs, d4) of the same compound?
**A.** 275 ± 98 pg/mL

**Q.** And the “Production of P24 in HIV” value (HIV-1; 50% AB serum, 30 μg/ml 2 hrs, d10)?
**A.** > 1500 pg/mL

**Q.** And the “efficacy on inhibition of wild HIV-1 in human serum” value (HIV-1; 50% human serum)?
**A.** remained unchanged

**Q.** What about the “influence of constituents of human serum” value (HIV-1; HIV-1 inhibition at non-cytotoxic concentrations) of the same compound?
**A.** did not appear to be influenced by the constituents of the human serum

**Q.** What about the “Production of P24 in HIV” value (HIV-1; no serum, 10 μg/ml 2 hrs, d4) of the same compound?
**A.** 388 ± 124 pg/mL

**Q.** And the “Production of P24 in HIV” value (HIV-1; no serum, 10 μg/ml 2 hrs, d10)?
**A.** > 1500 pg/mL

**Q.** What about the “Production of P24 in HIV” value (HIV-1; no serum, 30 μg/ml 2 hrs, d4) of the same compound?
**A.** 173 ± 102 pg/mL

**Q.** What about the “Production of P24 in HIV” value (HIV-1; no serum, 30 μg/ml 2 hrs, d10) of the same compound?
**A.** > 1500 pg/mL

**Q.** And the “appearance and development of vital papules” value [1]?
**A.** prevents the appearance and development of vital papules

**Q.** And the “activity against the influenza virus” value (influenza virus; EP-A-0 059 817)?
**A.** active against the influenza virus

**Q.** And the “action against influenza (RNA virus)” value (influenza virus; in vivo)?
**A.** appears to act in vivo against influenza
